Literature values in patent US6486186B2, “Thiazole compounds as cyclic AMP-specific phosphodiesterase inhibitors and method of using the same” (ICOS Corporation, priority 1999, dated 2002).

Legend:
[1] = in vivo
recombinant human PDE4 = settings: literature value; read-out: reported IC50 with respect to inhibiting recombinant human PDE4

| IC50 (recombinant human PDE4) | SMILES | emetic potential relative to the (+)-enantiomer (S-rolipram) [1] |
| --- | --- | --- |
|  | COc1ccc([C@@H]2CNC(=O)C2)cc1OC1CCCC1 (single isomer, unassigned) [(−)-enantiomer of rolipram] | about ten-fold more emetic |
| ~200 nM | COc1ccc(C2CNC(=O)C2)cc1OC1CCCC1 (stereo not drawn) [Rolipram] |  |
| ~2 nM | COC(=O)N1CC(c2ccc(OC)c(OC3CCCC3)c2)C(C)(C(C)=O)C1 (stereo not drawn) [structural formula (I)] |  |
